Where only a bound is given, the exact number is not on record here.

The subject of data set [1] is Escherichia coli strain ATCC25922. As to the kind of experiment: Standard microdilution MIC assay, E. coli. The data set is classed as cell-based. Put shortly:
(§1)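 Broth microdilution per CLSI M7-A8 guidelines, with reference-strain quality control run in the same design; MIC determined per strain. Activity scored +/− against a 16 micrograms/mL cutoff.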

The nature of data set [2]: Rat five day safety study (bodyweight gain, reticulocyte count change). The class given is in vivo. The note with it: male Sprague-Dawley juvenile rats, n=5, once daily slow intravenous infusion for 5 days at or near maximum-tolerated dose. The procedure:
The compounds of the present disclosure were tested for safety in a multi-day dosing study in rat. Key parameters that were monitored are bodyweight gain and hematological changes, particularly changes in reticulocyte counts. Male Sprague-Dawley (CD) juvenile rats were received from Charles River with double jugular vein catheters. For each compound, n=5. […] Bodyweights were recorded daily for the first 5 days (during the dosing period), then 2 to 3 times per week thereafter. Blood was collected via a jugular vein catheter into EDTA anti-coagulated tubes for complete blood counts (CBC) on Days 0 (baseline), 3 and 7. On Day 22, blood was drawn via a cardiac puncture into EDTA coated tubes for final CBC, and serum separator tubes for the complete clinical chemistry profile. The blood that was collected into serum separator tubes was allowed to clot at room temperature for approximately 30 minutes, spun in a centrifuge at 2000 rpm, and the resulting serum was aliquoted. All samples were sent on wet ice to Charles River Labs for analysis.

The test system of data set [3] is Staphylococcus aureus (S. aureus) 11540 strain. As to the kind of experiment: Standard microdilution MIC assay, S. aureus. The data set is classed as cell-based. Put shortly:
as §1

For `CC(=N)NCC[C@@H]1CCC[C@@H](c2ccc(-n3cc4cc(-c5cc(CCC[C@@H](N)C6CC6)cc(C(F)(F)F)c5F)[nH]c4nc3=O)cn2)N1` [Compound 249], the MIC in data set [1] and in data set [3] was at most 16 µg/mL in each case. Moreover, the “BW Result” value in data set [2] (bodyweight gain) is given as “+ (a “+” in “BW result” indicates that the rat exhibited a weight gain of 20% or more)”. For the same molecule, the “Hematology Result” value in data set [2] (reticulocyte count change) is on record as “+ (a “+” in “Hematology result” indicates indicates that the rat exhibited a reticulocyte count change of 65% or less)”.
As to `C=C[C@H](NCCCNC(C)=N)c1ccc(-n2cc3cc(-c4cc(CCC[C@@H](N)CF)cc(Cl)c4F)[nH]c3nc2=O)cc1` [Compound 179], the minimal inhibitory concentration (MIC) in data set [1] and in data set [3] was at most 16 µg/mL in each case.
Take `CC(=N)NCC[C@@H]1CCC[C@@H](c2ccc(-n3cc4cc(-c5cc(CCC[C@H](C)N)cc(Cl)c5F)[nH]c4nc3=O)cc2)N1C[C@@H](C)CO` [Compound 365]: the MIC in data set [1] and in data set [3] was at most 16 µg/mL each time.
`CC(=N)NCCCNCc1ccc(-n2cc3cc(-c4cc(CCC[C@H](C)N)cc(Cl)c4F)[nH]c3nc2=O)cc1F` [Compound 76]: the minimum inhibitory concentration (MIC) in data set [1] and in data set [3] was at most 16 µg/mL in each case.
With `CC(=N)NCC[C@@H]1CCC[C@@H](c2ccc(-n3cc4cc(-c5cc(CCC(F)(F)CN)cc(Cl)c5F)[nH]c4nc3=O)cc2)N1C` [Compound 135], the MIC in data set [1] and in data set [3] was at most 16 µg/mL each time.
As for `CC(=N)NCC[C@@H]1CCC[C@@H](c2ccc(-n3cc4cc(-c5cc(CCC[C@@H]6COCC(=O)N6)cc(Cl)c5F)[nH]c4nc3=O)cc2)N1` [Compound 227], the MIC in data set [1] and in data set [3] was at most 16 µg/mL throughout.
In the case of `CC(=N)NCC[C@@H]1CCC[C@@H](c2ccc(-n3cc4cc(-c5cc(CCC[C@@H](N)C6CC6)cc(C(F)(F)F)c5F)[nH]c4nc3=O)cc2F)N1` [Compound 228], the MIC in data set [1] and in data set [3] was at most 16 µg/mL throughout.
As to `CC(=N)NCC[C@@H]1CSC[C@@H](c2ccc(-n3cc4cc(-c5cc(CCC[C@@H](N)C6CC6)cc(Cl)c5F)[nH]c4nc3=O)cc2)N1` [Compound 269], the minimal inhibitory concentration (MIC) in data set [1] and in data set [3] was at most 16 µg/mL each time.
Consider `C=C[C@@H](CCNC(C)=N)N[C@@H](C)c1ccc(-n2cc3cc(-c4cc(CCC[C@@H](N)CF)cc(Cl)c4F)[nH]c3nc2=O)cc1` [Compound 150], for which the MIC in data set [1] and in data set [3] was at most 16 µg/mL in each case.
In the case of `CC(=N)NCC[C@@H]1CCC[C@@H](c2ccc(-n3cc4cc(-c5cc(CCCC6(N)CC6)cc(Cl)c5F)[nH]c4nc3=O)cc2)N1` [Compound 147], the minimal inhibitory concentration (MIC) in data set [1] and in data set [3] was at most 16 µg/mL each time.
As to `CC(=N)NCCCNC1(c2ccc(-n3cc4cc(-c5cc(CCC[C@@H](N)C6CC6)cc(Cl)c5F)[nH]c4nc3=O)cc2)CC1` [Compound 143], the MIC in data set [1] and in data set [3] was at most 16 µg/mL in each case.
On to `C[C@H](N)CCCc1cc(Cl)c(F)c(-c2cc3cn(-c4ccc([C@@H]5CCC[C@@H](CCNC(=N)CF)N5C)cc4)c(=O)nc3[nH]2)c1` [Compound 108], for which the MIC in data set [1] and in data set [3] was at most 16 µg/mL in each case.
Turning to `COCCC(=N)NCC[C@@H]1CCC[C@@H](c2ccc(-n3cc4cc(-c5cc(CCC[C@H](C)N)cc(Cl)c5F)[nH]c4nc3=O)cc2)N1` [Compound 348], the minimum inhibitory concentration (MIC) in data set [1] and in data set [3] was at most 16 µg/mL in each case.
For `CSc1cc(-n2cc3cc(-c4cc(CCC[C@H](C)N)cc(Cl)c4F)[nH]c3nc2=O)ccc1[C@@H]1CCC[C@@H](CCNC(C)=N)N1` [Compound 115], the minimal inhibitory concentration (MIC) in data set [1] and in data set [3] was at most 16 µg/mL throughout.
With `CC(=N)NCC[C@@H]1CCC[C@@H](c2ccc(-n3cc4cc(-c5cc(CCC[C@@H](N)C6CC6)cc(C(F)(F)F)c5)[nH]c4nc3=O)cc2OC(F)(F)F)N1` [Compound 217], the minimal inhibitory concentration (MIC) in data set [1] and in data set [3] was at most 16 µg/mL throughout.
Consider `C[C@H](N)CCCc1cc(Cl)c(F)c(-c2cc3cn(-c4ccc([C@@H]5CNC[C@@H](CCNC(=N)CF)N5)cc4)c(=O)nc3[nH]2)c1` [Compound 51], for which the MIC in data set [1] and in data set [3] was at most 16 µg/mL in each case.
Take `CC(=N)NCC[C@H](CN)NCc1ccc(-n2cc3cc(-c4cc(CCC[C@H](C)N)cc(Cl)c4F)[nH]c3nc2=O)cc1` [Compound 17]: the minimal inhibitory concentration (MIC) in data set [1] and in data set [3] was at most 16 µg/mL throughout.
With `COC[C@H](N)CCCc1cc(-c2cc3cn(-c4ccc([C@@H]5CCC[C@@H](CCNC(C)=N)N5)c(OC)c4)c(=O)nc3[nH]2)c(F)c(C(F)(F)F)c1` [Compound 194], the MIC in data set [1] and in data set [3] was at most 16 µg/mL in each case.
On to `CSc1cc(-n2cc3cc(-c4cc(CCC[C@@H](N)C5CC5)cc(Cl)c4F)[nH]c3nc2=O)cc(F)c1[C@@H]1CCC[C@@H](CCNC(C)=N)N1CCCF` [Compound 338], for which the minimal inhibitory concentration (MIC) in data set [1] and in data set [3] was at most 16 µg/mL throughout.
For the molecule `CN=C(C)NCC[C@@H]1CCC[C@@H](c2ccc(-n3cc4cc(-c5cc(CCC[C@H](C)N)cc(Cl)c5F)[nH]c4nc3=O)cc2)N1` [Compound 283], the MIC in data set [1] and in data set [3] was at most 16 µg/mL each time.
`CC(=N)NCC[C@@H]1CCC[C@@H](c2ccc(-n3cc4cc(-c5cc(CCC[C@@H](N)CS(C)(=O)=O)cc(Cl)c5F)[nH]c4nc3=O)cc2)N1` [Compound 284]: the minimum inhibitory concentration (MIC) in data set [1] and in data set [3] was at most 16 µg/mL in each case.
For `CC(C)(CN)CCc1cc(Cl)c(F)c(-c2cc3cn(-c4ccc([C@@H]5COC[C@@H](CCNC(=N)CF)N5)cc4)c(=O)nc3[nH]2)c1` [Compound 72], the minimal inhibitory concentration (MIC) in data set [1] and in data set [3] was at most 16 µg/mL in each case.
For `C=C[C@H](NCCCNC(C)=N)c1ccc(-n2cc3cc(-c4cc(CCC[C@@H](N)C=C)cc(Cl)c4F)[nH]c3nc2=O)cc1` [Compound 265], the MIC in data set [1] and in data set [3] was at most 16 µg/mL each time.
`CC(=N)NCCCNCc1ccc(-n2cc3cc(-c4cc(CCC(C)(C)CN)cc(Cl)c4F)[nH]c3nc2=O)cc1F` [Compound 73]: the MIC in data set [1] and in data set [3] was at most 16 µg/mL throughout.
In the case of `C=C[C@H](N)CCCc1cc(-c2cc3cn(-c4ccc([C@@H]5CCC[C@@H](CCNC(C)=N)N5CCCF)cc4)c(=O)nc3[nH]2)cc(C(F)(F)F)c1` [Compound 346], the MIC in data set [1] and in data set [3] was at most 16 µg/mL throughout.
For `C=C[C@H](N)CCCc1cc(Cl)c(F)c(-c2cc3cn(-c4ccc(CN[C@@H](C=C)CCNC(C)=N)cc4)c(=O)nc3[nH]2)c1` [Compound 101], the MIC in data set [1] and in data set [3] was at most 16 µg/mL in each case.
Consider `COC[C@H](N)CCCc1cc(OC(F)(F)F)c(F)c(-c2cc3cn(-c4ccc([C@@H]5CCC[C@@H](C[C@H](C)NC(C)=N)N5)cc4)c(=O)nc3[nH]2)c1` [Compound 258], for which the MIC in data set [1] and in data set [3] was at most 16 µg/mL throughout.
Take `C=C[C@@H](N)CCCc1cc(Cl)c(F)c(-c2cc3cn(-c4ccc([C@@H]5COC[C@@H](CCNC(=N)CF)N5)cc4)c(=O)nc3[nH]2)c1` [Compound 57]: the minimal inhibitory concentration (MIC) in data set [1] and in data set [3] was at most 16 µg/mL each time.
For the molecule `CC(=N)NCCCN[C@@H](C)c1ccc(-n2cc3cc(-c4cc(CCCC5(N)CC5)cc(Cl)c4F)[nH]c3nc2=O)cc1` [Compound 131], the minimum inhibitory concentration (MIC) in data set [1] and in data set [3] was at most 16 µg/mL in each case.
On to `CC(=N)NCC[C@H]1CNC[C@@H](c2ccc(-n3cc4cc(-c5cc(CCC[C@H](C)N)cc(Cl)c5F)[nH]c4nc3=O)cc2)N1` [Compound 48], for which the MIC in data set [1] and in data set [3] was at most 16 µg/mL throughout.
With `CC(=N)NCC[C@H]1CNC[C@@H](c2ccc(-n3cc4cc(-c5cc(CCC[C@H](C)N)cc(Cl)c5F)[nH]c4nc3=O)cc2)O1` [Compound 4], the minimum inhibitory concentration (MIC) in data set [1] and in data set [3] was at most 16 µg/mL in each case.
Take `COc1cc(-n2cc3cc(-c4cc(CCC[C@@H](N)CF)cc(C(F)(F)F)c4)[nH]c3nc2=O)ccc1[C@@H]1CCC[C@@H](CCNC(C)=N)N1` [Compound 209]: the MIC in data set [1] and in data set [3] was at most 16 µg/mL in each case.
`COCCN1[C@H](CCNC(C)=N)CCC[C@H]1c1ccc(-n2cc3cc(-c4cc(CCC[C@H](C)N)cc(Cl)c4F)[nH]c3nc2=O)cc1` [Compound 277]: the minimum inhibitory concentration (MIC) in data set [1] and in data set [3] was at most 16 µg/mL throughout.
Consider `CC(=N)NCC[C@@H]1CCC[C@@H](c2ccc(-n3cc4cc(-c5cc(CCC[C@@H](N)CN)cc(Cl)c5F)[nH]c4nc3=O)cc2)N1` [Compound 289], for which the MIC in data set [1] and in data set [3] was at most 16 µg/mL in each case.
Take `C=CCN(CC[C@@H]1CCC[C@@H](c2ccc(-n3cc4cc(-c5cc(CCC[C@H](C)N)cc(Cl)c5F)[nH]c4nc3=O)cc2)N1C)C(C)=N` [Compound 180]: the minimal inhibitory concentration (MIC) in data set [1] and in data set [3] was at most 16 µg/mL each time.
On to `CC(=N)NCC[C@@H]1CCC[C@@H](c2ccc(-n3cc4cc(-c5cc(CCC[C@@H](N)CF)cc(Cl)c5F)[nH]c4nc3=O)cc2)N1C` [Compound 137], for which the MIC in data set [1] and in data set [3] was at most 16 µg/mL in each case.
For the molecule `CC(=N)NCC[C@@H]1CCC[C@@H](c2ccc(-n3cc4cc(-c5cc(CCC(C)(C)CN)cc(Cl)c5F)[nH]c4nc3=O)cc2)N1` [Compound 24], the MIC in data set [1] and in data set [3] was at most 16 µg/mL in each case.
As to `CSc1cc(-n2cc3cc(-c4cc(CCC[C@@H](N)C5CC5)cc(OC(F)(F)F)c4F)[nH]c3nc2=O)cc(F)c1[C@@H]1CCC[C@@H](CCNC(C)=N)N1` [Compound 242], the MIC in data set [1] and in data set [3] was at most 16 µg/mL in each case.

The values above are taken from US11999739B2, “Antimicrobials methods of making and using the same” (BIOVERSYS AG, priority 2016, dated 2024).
